Measurements taken from patent US6677368B2, “4-aryl substituted indolinones” (Sugen, Inc., priority 2000, dated 2004).

Assays:
Format in all cases: biochemical
FGFR1 = FGFR1 (Homo sapiens, UniProt P11362); assay: FGFR1 bioassay (ELISA, in vitro kinase activity); details: purified GST-FGFR1, poly(Glu-Tyr) substrate
Procedure: This assay is used to measure the in vitro kinase activity of FGF1-R in an ELISA assay.
1. Costar 96-well ELISA plates (Corning Catalog #3369).
2. Poly(Glu-Tyr) (Sigma Catalog #P0275).
4. 50 mM Hepes Buffer Solution.
5. Blocking Buffer (5% BSA/PBS).
6. Purified GST-FGFR1 (SUGEN, Inc.)
7. Kinase Dilution Buffer. Mix 500 μl 1M Hepes (GIBCO), 20 μl 5% BSA/PBS, 10 μl 100 mM sodium orthovanadate and 50 μl 5M NaCl.
9. ATP/MnCl2 phosphorylation mix: mix 20 μL ATP, 400 μL 1M MnCl2 and 9.56 ml dH2O.
10. NUNC 96-well V bottom polypropylene plates (Applied Scientific Catalog #AS-72092).
12. 0.05% TBST Add 500 μL TWEEN to 1 liter TBS.
13. Rabbit polyclonal anti-phosphotyrosine serum (SUGEN, Inc.).
14. Goat anti-rabbit IgG peroxidase conjugate (Biosource, Catalog #ALI0404).
1. Coat Costar 96 well ELISA plates with 1 μg per well Poly(Glu-Tyr) in 100 μl PBS. Store overnight at 4° C.
2. Wash coated plates once with PBS.
3. Add 150 μL of 5%BSA/PBS Blocking Buffer to each well. Incubate, with shaking, for 1 hr at room temperature.
4. Wash plate 2× with PBS, then once with 50 mM Hepes. Pat plates on a paper towel to remove excess liquid and bubbles.
5. Add 25 μL of 0.4 mM test compound in 4% DMSO or 4% DMSO alone (controls) to plate.
6. Dilute purified GST-FGFR1 in Kinase Dilution Buffer (5 ng kinase/50 μl KDB/well).
7. Add 50 μL of diluted kinase to each well.
8. Start kinase reaction by adding 25 μl/well of freshly prepared ATP/Mn++ (0.4 ml 1M MnCl2, 40 μL 10 mM ATP, 9.56 ml dH2O), freshly prepared).
9. Stop reaction with 25 μL of 0.5M EDTA.
10. Wash plate 4× with fresh TBST.
11. Make up Antibody Dilution Buffer: For 50 ml, mix 5 ml of 5% BSA, 250 μl of 5% milk and 50 μl of 100 mM sodium vanadate, bring to final volume with 0.05% TBST.
12. Add 100 μl per well of anti-phosphotyrosine (1:10000 dilution in ADB). Incubate, with shaking for 1 hr. at room temperature.
14. Add 100 μl per well of Biosource Goat anti-rabbit IgG peroxidase conjugate (1:6000 dilution in ADB). Incubate, with shaking for 1 hr. at room temperature.
15. Wash as in step 10 and then with PBS to remove bubbles and excess TWEEN.
16. Add 100 μl of ABTS/H2O2 solution to each well.
17. Incubate, with shaking, for 10 to 20 minutes. Remove any bubbles.
18. Read assay on Dynatech MR7000 ELISA reader: test filter at 410 nM, reference filter at 630 nM.

MET = target: T1, MET (Homo sapiens, UniProt P08581); assay: MET transphosphorylation assay; details: GST fusion protein containing the Met kinase domain, poly(glu-tyr) substrate
T1 construct: Purified GST fusion protein containing the Met kinase domain, SUGEN, Inc
T1 sequence (P08581 1078-1345 limits assumed): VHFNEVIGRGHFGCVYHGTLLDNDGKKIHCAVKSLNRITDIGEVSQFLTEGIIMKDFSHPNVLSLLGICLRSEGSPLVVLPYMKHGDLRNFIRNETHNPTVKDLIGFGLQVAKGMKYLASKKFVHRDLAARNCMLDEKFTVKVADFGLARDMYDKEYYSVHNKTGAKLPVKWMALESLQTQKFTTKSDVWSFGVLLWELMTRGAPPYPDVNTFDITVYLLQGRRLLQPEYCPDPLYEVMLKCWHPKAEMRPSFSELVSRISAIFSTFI
Procedure: MET TRANSPHOSPHORYLATION ASSAY
This assay is used to measure phosphotyrosine levels on a poly(glutamic acid:tyrosine, 4:1) substrate as a means for identifying agonists/antagonists of met transphosphorylation of the substrate.
1. Corning 96-well ELISA plates, Corning Catalog #25805-96.
2. Poly(glu-tyr), 4:1, Sigma, Cat. No; P 0275.
5. Blocking Buffer: Dissolve 25 g Bovine Serum Albumin, Sigma Cat. No A-7888, in 500 ml PBS, filter through a […] filter.
6. Purified GST fusion protein containing the Met kinase domain, SUGEN, Inc.
8. 10% aqueous (MilliQue H2O) DMSO.
9. 10 mM aqueous (dH2O) Adenosine-5′-triphosphate, Sigma Cat. No. A-5394.
10. 2×Kinase Dilution Buffer: for 100 ml, mix 10 mL 1M HEPES at pH 7.5 with 0.4 mL 5% BSA/PBS, 0.2 mL 0.1 M sodium orthovanadate and 1 mL 5M sodium chloride in 88.4 mL dH2O.
11. 4×ATP Reaction Mixture: for 10 mL, mix 0.4 mL 1 M manganese chloride and 0.02 mL 0.1 M ATP in 9.56 mL dH2O.
12. 4×Negative Controls Mixture: for 10 mL, mix 0.4 mL 1 M manganese chloride in 9.6 mL dH2O.
13. NUNC 96-well V bottom polypropylene plates, Applied Scientific Catalog #S-72092
15. Antibody Dilution Buffer: for 100 mL, mix 10 mL 5% BSA/PBS, 0.5 mL 5% Carnation® Instant Milk in PBS and 0.1 mL 0.1 M sodium orthovanadate in 88.4 mL TBST.
16. Rabbit polyclonal antophosphotyrosine antibody, SUGEN, Inc.
17. Goat anti-rabbit horseradish peroxidase conjugated antibody, Biosource, Inc.
18. ABTS Solution: for 1 L, mix 19.21 g citric acid, 35.49 g Na2HPO4 and 500 mg ABTS with sufficient dH2O to make 1 L.
19. ABTS/H2O2: mix 15 mL ABST solution with 2μL H2O2 five minutes before use.
1. Coat ELISA plates with 2 μg Poly(Glu-Tyr) in 100 μL PBS, hold overnight at 4° C.
2. Block plate with 150 μL of 5% BSA/PBS for 60 min.
3. Wash plate twice with PBS then once with 50 mM Hepes buffer pH 7.4.
4. Add 50 μl of the diluted kinase to all wells. (Purified kinase is diluted with Kinase Dilution Buffer. Final concentration should be 10 ng/well.)
5. Add 25 μL of the test compound (in 4% DMSO) or DMSO alone (4% in dH2O) for controls to plate.
6. Incubate the kinase/compound mixture for 15 minutes.
7. Add 25 μL of 40 mM MnCl2 to the negative control wells.
8. Add 25 μL ATP/MnCl2 mixture to the all other wells (except the negative controls). Incubate for 5 min.
9. Add 25 μL 500 mM EDTA to stop reaction.
10. Wash plate 3× with TBST.
11. Add 100 μL rabbit polyclonal anti-Ptyr diluted 1:10,000 in Antibody Dilution Buffer to each well. Incubate, with shaking, at room temperature for one hour.
12. Wash plate 3× with TBST.
13. Dilute Biosource HRP conjugated anti-rabbit antibody 1:6,000 in Antibody Dilution buffer. Add 100 μL per well and incubate at room temperature, with shaking, for one hour.
14. Wash plate 1× with PBS.
15. Add 100 μl of ABTS/H2O2 solution to each well.
16. If necessary, stop the development reaction with the addition of 100 μl of 0.2M HCl per well.
17. Read plate on Dynatech MR7000 ELISA reader with the test filter at 410 nM and the reference filter at 630 nM.

FGFR3 = FGFR3 (Homo sapiens, UniProt P22607); assay: FGFR3 kinase inhibition
FGFR3, sequence (P22607 23-806, species assumed): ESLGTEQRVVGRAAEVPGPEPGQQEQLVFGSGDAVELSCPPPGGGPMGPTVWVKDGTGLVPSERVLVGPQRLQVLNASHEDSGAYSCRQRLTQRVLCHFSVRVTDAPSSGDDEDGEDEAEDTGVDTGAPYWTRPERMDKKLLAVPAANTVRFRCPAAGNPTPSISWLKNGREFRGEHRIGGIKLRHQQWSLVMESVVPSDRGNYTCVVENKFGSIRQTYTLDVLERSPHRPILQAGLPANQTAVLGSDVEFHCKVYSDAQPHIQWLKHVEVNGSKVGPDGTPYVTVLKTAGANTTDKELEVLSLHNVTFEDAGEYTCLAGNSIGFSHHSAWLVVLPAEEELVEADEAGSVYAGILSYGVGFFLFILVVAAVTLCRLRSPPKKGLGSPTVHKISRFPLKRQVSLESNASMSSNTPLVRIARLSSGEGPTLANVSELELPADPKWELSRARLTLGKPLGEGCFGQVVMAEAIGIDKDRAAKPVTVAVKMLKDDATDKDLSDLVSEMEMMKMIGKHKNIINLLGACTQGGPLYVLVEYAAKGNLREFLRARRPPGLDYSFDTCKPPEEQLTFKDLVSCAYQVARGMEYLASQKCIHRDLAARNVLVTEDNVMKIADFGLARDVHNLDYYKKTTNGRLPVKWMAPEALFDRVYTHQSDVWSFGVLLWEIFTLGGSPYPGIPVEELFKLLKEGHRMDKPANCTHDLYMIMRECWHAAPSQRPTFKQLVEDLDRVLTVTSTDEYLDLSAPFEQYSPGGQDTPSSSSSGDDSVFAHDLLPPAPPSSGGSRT

FGFR1, sequence (P11362 22-822, species assumed): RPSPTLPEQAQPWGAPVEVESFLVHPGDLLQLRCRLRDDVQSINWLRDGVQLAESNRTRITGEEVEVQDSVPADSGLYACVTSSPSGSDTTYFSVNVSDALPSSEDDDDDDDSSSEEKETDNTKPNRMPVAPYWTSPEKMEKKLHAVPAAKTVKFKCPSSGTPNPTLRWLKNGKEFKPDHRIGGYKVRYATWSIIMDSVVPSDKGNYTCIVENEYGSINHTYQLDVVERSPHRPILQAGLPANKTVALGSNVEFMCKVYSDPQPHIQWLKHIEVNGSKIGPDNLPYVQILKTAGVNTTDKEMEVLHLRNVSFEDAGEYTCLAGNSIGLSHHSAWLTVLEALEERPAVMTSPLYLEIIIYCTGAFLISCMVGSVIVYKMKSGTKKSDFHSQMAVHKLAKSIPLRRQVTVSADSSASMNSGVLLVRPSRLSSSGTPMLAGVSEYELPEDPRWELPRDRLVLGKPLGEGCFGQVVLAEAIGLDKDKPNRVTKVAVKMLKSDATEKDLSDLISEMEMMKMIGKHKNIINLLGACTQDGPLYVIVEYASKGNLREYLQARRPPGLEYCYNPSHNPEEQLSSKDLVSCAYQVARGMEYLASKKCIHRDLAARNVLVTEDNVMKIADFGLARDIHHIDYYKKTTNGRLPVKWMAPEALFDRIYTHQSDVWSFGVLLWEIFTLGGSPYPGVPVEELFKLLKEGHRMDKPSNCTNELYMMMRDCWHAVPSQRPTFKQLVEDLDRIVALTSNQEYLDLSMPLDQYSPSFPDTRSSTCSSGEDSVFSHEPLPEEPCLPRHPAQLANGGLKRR

SMILES | IC50 (FGFR1) [nM] | IC50 (MET) [nM] | IC50 (FGFR3) [nM]
Cc1[nH]c(/C=C2\C(=O)Nc3cccc(-c4ccc(Br)cc4)c32)c(C)c1C(=O)NCCN(C(C)C)C(C)C [Example 60, 5-[4-(4-Bromo-phenyl)-2-oxo-1,2-dihydro-indol-3-ylidenemethyl]-2,4-dimethyl-1H-pyrrole-3-carboxylic Acid (2-Diisopropylamino-ethyl)-amide] | 150 | 250 | 550
Cc1cc(C(=O)N2CC[C@H](N(C)C)C2)c(/C=C2\C(=O)Nc3cccc(-c4cccc(Cl)c4)c32)[nH]1 [Example 32, 4-(3-Chloro-phenyl)-3-[3-((S)-3-dimethylamino-pyrrolidine-1-carbonyl)-5-methyl-1H-pyrrol-2-ylmethylene]-1,3-dihydro-indol-2-one] | 350 | 120 | 1770
Cc1cc(C(=O)N2CC[C@@H](N(C)C)C2)c(/C=C2\C(=O)Nc3cccc(-c4ccc(Cl)cc4)c32)[nH]1 [Example 25, 4-(4-Chloro-phenyl)-3-[3-((R)-3-dimethylamino-pyrrolidine-1-carbonyl)-5-methyl-1H-pyrrol-2-ylmethylene]-1,3-dihydro-indol-2-one] | 560 | 110 | 340
Cc1[nH]c(/C=C2\C(=O)Nc3cccc(-c4ccc(Cl)cc4)c32)c(C)c1C(=O)N1CCN(C)CC1 [Example 20, 4-(4-Chloro-phenyl)-3-[3,5-dimethyl-4-(4-methyl-piperazine-1-carbonyl)-1H-pyrrol-2-ylmethylene]-1,3-dihydro-indol-2-one] | 1150 | 520 | 1290
